Measured values as given in article PMC6891325, “The Synthesis, Characterization, Cytotoxic Activity Assessment and Structure-Activity Relationship of 4-Aryl-6-(2,5-dichlorothiophen-3-yl)-2-methoxypyridine-3-carbonitriles” (Molecules, 2019).

Columns and labels:
DU145 = test: MTT cytotoxicity assay, DU145 prostate cancer cells; assay type: cell-based, human; details: for IC50: Homo sapiens, DU-145, DU145 prostate cancer cells, MTT; for SI (DU145): selectivity index relative to normal human fibroblasts HSF1184
Experimental: (§1) Three different cancer cell lines; namely, DU145 derived from prostate cancer cells (American Type Culture Collection No. HTB-81), HepG2 derived from human liver cancer cells (American Type Culture Collection No. HB-8065), MBA-MB-231 derived from breast cancer cells (American Type Culture Collection No. HTB-26) and normal human fibroblasts (HSF1184) were grown and cultivated according to our previously described method. Briefly, cells were seeded in Dulbecco′s modified Eagle’s media (DMEM) supplemented with 10% heat-inactivated fetal bovine serum (FBS), 100 IU/mL penicillin, […] and 2 mM glutamine. The cells were maintained in a humidified atmosphere with 5% CO2 at 37 °C for 8 days, with subsequent media renewal. Then, cells were plated in a 96-well flat bottom plate at a concentration of 10^4 cells/well in fresh complete growth medium for 24 h and maintained in 37 °C in a 5% CO2-humidified incubator.
(§2) Cells in 96-well flat bottom plates were first serum-starved for 4 h by replacing cultured media with fresh medium (without serum). All synthesized compounds were properly dissolved in dimethyl sulfoxide (DMSO) to produce a stock concentration of 0.1 M. Cells were incubated with a range of different concentrations of the compounds we were testing (0–1000 μM) to give a final volume of 300 µL per well. In comparison, cells were incubated either alone with DMSO (negative control) or with 5-fluorouracil as a positive control. DMSO was used as a vehicle for the dissolution of the tested compounds and its final concentration in cultured media was less than 0.1%. Triplicate wells were designed for each individual dose. The compounds we synthesized were evaluated for in-vitro cytotoxicity properties via the standard 3-(4,5-dimethythiazol-2-yl)-2,5-diphenyl tetrazolium bromide (MTT) assay accordingly to our previously-reported work. The normal human fibroblast line (HSF1184) was used as a standard reference for the measurement of selectivity indexes (SIs) relative to cancer cell lines. The IC50 values and SIs were calculated accordingly.

HepG2 = test: MTT cytotoxicity assay, HepG2 liver cancer cells; assay type: cell-based, human; details: for IC50: MTT; for SI (HepG2): selectivity index relative to normal human fibroblasts HSF1184
Experimental: as §1, §2

MDA-MB-231 = test: MTT cytotoxicity assay, MDA-MB-231 breast cancer cells; assay type: cell-based, human; details: for IC50: Homo sapiens, MDA-MB-231 breast cancer cells, MTT; for SI (MDA-MB-231): selectivity index relative to normal human fibroblasts HSF1184
Experimental: as §1, §2

HSF1184 = test: MTT cytotoxicity assay, normal human fibroblasts HSF1184; assay type: cell-based; details: for IC50: Fibroblast
Experimental: as §1, §2

[1] = tested on: HepG2, DU145 and MBA-MB-231 cancer cell lines; test: MTT cytotoxicity, stated jointly for the three cancer cell lines; assay type: cell-based; details: Homo sapiens; summary statement for HepG2, DU145 and MBA-MB-231; read-out: IC50 against all three cancer cell lines
Experimental: as §1, §2

[2] = Homo sapiens, HepG2, HepG2 liver cancer cells

SMILES	IC50 (DU145)	SI (DU145) (DU145)	IC50 (HepG2; [2])	SI (HepG2) (HepG2)	IC50 (MDA-MB-231)	SI (MDA-MB-231) (MDA-MB-231)	IC50 (HSF1184)	IC50 [1]	melting point	IC50 (HepG2; HepG2 liver cancer cells)	IC50 Values HSF1184 (HSF1184)
O=c1[nH]cc(F)c(=O)[nH]1 [5-fluorouracil, reference compound]	1.92 ± 0.24 µM	96.60	1.65 ± 0.09 µM	112.41	2.21 ± 0.28 µM	83.93	185.5 ± 0.48 µM	–	–	–	–
COc1nc(-c2cc(Cl)sc2Cl)cc(-c2ccccc2)c1C#N [5a, 6-(2,5-dichlorothiophen-3-yl)-2-methoxy-4-phenylpyridine-3-carbonitrile]	> 100 µM	–	49.6 ± 0.51 µM	–	21.2 ± 0.37 µM	–	82.39 ± 0.04 µM	> 100 µM	–	–	–
COc1nc(-c2cc(Cl)sc2Cl)cc(-c2ccc(C)cc2)c1C#N [5b, 6-(2,5-dichlorothiophen-3-yl)-2-methoxy-4-p-tolylpyridine-3-carbonitrile]	> 100 µM	–	9.48 ± 0.63 µM	–	> 100 µM	–	114.5 ± 0.38 µM	> 100 µM	–	–	–
COc1nc(-c2cc(Cl)sc2Cl)cc(-c2ccc(Cl)cc2)c1C#N [5c, 4-(4-chlorophenyl)-6-(2,5-dichlorothiophen-3-yl)-2-methoxypyridine-3-carbonitrile]	42.36 ± 0.21 µM	2.18	> 100 µM	–	28.3 ± 0.42 µM	3.26	92.38 ± 0.38 µM	> 100 µM	195 to 196 °C	–	–
COc1nc(-c2cc(Cl)sc2Cl)cc(-c2ccc(Br)cc2)c1C#N [5d, 4-(4-bromophenyl)-6-(2,5-dichlorothiophen-3-yl)-2-methoxypyridine-3-carbonitrile]	3.63 ± 0.17 µM	116.65	1.53 µM	261.39	2.59 ± 0.04 µM	163.49	423.4 ± 0.49 µM	1 to 5 µM	214 to 215 °C	1.62 ± 0.15 µM	high
COc1cccc(-c2cc(-c3cc(Cl)sc3Cl)nc(OC)c2C#N)c1 [5f, 6-(2,5-dichlorothiophen-3-yl)-2-methoxy-4-(3-methoxyphenyl)pyridine-3-carbonitrile]	27.4 ± 0.63 µM	3.48	18.3 ± 0.31 µM	5.21	43.49 ± 0.06 µM	2.20	95.49 ± 0.29 µM	–	179 to 180 °C	–	–
COc1nc(-c2cc(Cl)sc2Cl)cc(-c2cccc([N+](=O)[O-])c2)c1C#N [5g, 6-(2,5-dichlorothiophen-3-yl)-2-methoxy-4-(3-nitrophenyl)pyridine-3-carbonitrile]	4.97 ± 0.35 µM	–	2.11 ± 0.26 µM	–	1.93 ± 0.03 µM	–	135.6 ± 0.55 µM	1 to 5 µM	–	–	high
COc1nc(-c2cc(Cl)sc2Cl)cc(-c2ccc([N+](=O)[O-])cc2)c1C#N [5h, 6-(2,5-dichlorothiophen-3-yl)-2-methoxy-4-(4-nitrophenyl)pyridine-3-carbonitrile]	1.77 ± 0.38 µM	105.93	1.53 ± 0.38 µM	122.54	2.14 ± 0.06 µM	87.61	187.49 ± 0.14 µM	1 to 5 µM	204 to 205 °C	–	high
COc1ccc(-c2cc(-c3cc(Cl)sc3Cl)nc(OC)c2C#N)cc1Br [5i, 4-(3-bromo-4-methoxyphenyl)-6-(2,5-dichlorothiophen-3-yl)-2-methoxypyridine-3-carbonitrile]	1.82 ± 0.21 µM	–	1.53 µM	–	1.38 ± 0.03 µM	–	234.5 ± 0.27 µM	1 to 5 µM	–	1.72 ± 0.42 µM	high
COc1cc(-c2ccccc2)cc(-c2cc(Cl)sc2Cl)n1 [6a, 2-(2,5-dichlorothiophen-3-yl)-6-methoxy-4-phenylpyridine]	53.49 ± 0.02 µM	1.67	32.31 ± 0.23 µM	2.77	15.3 ± 0.41 µM	5.82	89.34 ± 0.55 µM	–	127 to 128 °C	–	–
COc1cc(-c2ccc(C)cc2)cc(-c2cc(Cl)sc2Cl)n1 [6b, 2-(2,5-dichlorothiophen-3-yl)-6-methoxy-4-p-tolylpyridine]	64.59 ± 0.08 µM	1.59	39.5 ± 0.58 µM	2.59	52.39 ± 0.31 µM	1.95	102.4 ± 0.3 µM	–	150 to 151 °C	–	–
COc1cc(-c2ccc(Cl)cc2)cc(-c2cc(Cl)sc2Cl)n1 [6c, 4-(4-chlorophenyl)-2-(2,5-dichlorothiophen-3-yl)-6-methoxypyridine]	21.65 ± 0.12 µM	–	11.3 ± 0.22 µM	–	–	–	112.4 ± 0.47 µM	–	–	–	–
COc1cc(-c2ccc(Br)cc2)cc(-c2cc(Cl)sc2Cl)n1 [6d, 4-(4-bromophenyl)-2-(2,5-dichlorothiophen-3-yl)-6-methoxypyridine]	29.4 ± 0.88 µM	3.14	64.59 ± 0.33 µM	1.43	15.4 ± 0.48 µM	6.00	92.55 ± 0.42 µM	–	148 to 149 °C	–	–
COc1cc(-c2ccccc2OC)cc(-c2cc(Cl)sc2Cl)n1 [6e, 2-(2,5-dichlorothiophen-3-yl)-6-methoxy-4-(2-methoxyphenyl)pyridine]	–	–	–	–	–	–	–	–	135 to 136 °C	–	–
COc1cccc(-c2cc(OC)nc(-c3cc(Cl)sc3Cl)c2)c1 [6f, 2-(2,5-dichlorothiophen-3-yl)-6-methoxy-4-(3-methoxyphenyl)pyridine]	18.45 ± 0.02 µM	5.68	38.5 ± 0.62 µM	2.73	64.39 ± 0.28 µM	1.63	104.8 ± 0.71 µM	–	156 to 157 °C	–	–
COc1cc(-c2cccc([N+](=O)[O-])c2)cc(-c2cc(Cl)sc2Cl)n1 [6g, 2-(2,5-dichlorothiophen-3-yl)-6-methoxy-4-(3-nitrophenyl)pyridine]	25.4 ± 0.38 µM	3.33	39.43 ± 0.09 µM	2.14	18.3 ± 0.34 µM	4.61	84.56 ± 0.4 µM	–	182 to 183 °C	–	–
